Assay results reported in the supplement of paper PMC8253809.

What was measured:
DIPGX29 [1] = H3.3 K27M diffuse intrinsic pontine glioma line; experiment: maximal growth inhibition (yFin) relative to DMSO / staurosporine; higher = more efficacious
Method in brief: (§1)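 Patient-derived pHGG/DIPG cell lines and astrocyte controls were grown on 1% Geltrex-coated 384-well plates and exposed by pin tool to a 10-point threefold dilution series (mean top concentration 35 μM), in triplicate. Exposure was 7 days (iAstro 3 days) at 37 °C, 5% CO2. CellTiter-Glo luminescence was log2-transformed, normalised per plate to % activity between negative (solvent) and positive control wells, and pooled. EC50 and maximal response (yFin) come from the lowest-AICc three- or four-parameter log-logistic fit.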

HGGX6 [2] = H3.3 G34R paediatric high-grade glioma line; experiment: as above
Method in brief: as §1

HGGX39 [3] = paediatric high-grade glioma line; experiment: as above
Method in brief: as §1

DIPGX37 [4] = H3.3 K27M diffuse intrinsic pontine glioma line; experiment: as above
Method in brief: as §1

DIPGX29 [5] = experiment: area under dose-response curve of % growth inhibition (log2 RLU vs DMSO / staurosporine), 1e-11 to 1e-4 M (% x log10 M); higher = more growth inhibition
Method in brief: (§2)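 On 1% Geltrex-coated 384-well plates, patient-derived pHGG/DIPG cell lines and astrocytes were treated in triplicate across 10 threefold dilutions (mean top concentration 35 μM) for 7 days, with iAstro treated for 3 days, at 37 °C, 5% CO2. Log2-transformed CellTiter-Glo luminescence was normalised per plate to % activity between solvent and positive controls. Area under the curve was obtained by the trapezoid rule from a log-logistic fit, or from a smoothing spline when that fit failed.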

HGGX6 [6] = experiment: as above
Method in brief: as §2

HGGX39 [7] = experiment: as above
Method in brief: as §2

DIPGX37 [8] = experiment: as above
Method in brief: as §2

DIPGX29 [9] = experiment: EC50 (inflection of fitted growth-inhibition curve) (log10 M)
Method in brief: as §1

HGGX6 [10] = experiment: as above
Method in brief: as §1

HGGX39 [11] = experiment: as above
Method in brief: as §1

DIPGX37 [12] = experiment: as above
Method in brief: as §1

SUDIPGIV = diffuse intrinsic pontine glioma line; experiment: area under dose-response curve of % growth inhibition (log2 RLU vs DMSO / staurosporine), 1e-11 to 1e-4 M (% x log10 M); higher = more growth inhibition
Method in brief: as §2

SUDIPGXIX = diffuse intrinsic pontine glioma line; experiment: as above
Method in brief: as §2

SUDIPGXIII = diffuse intrinsic pontine glioma line; experiment: as above
Method in brief: as §2

SUDIPGVI = diffuse intrinsic pontine glioma line; experiment: as above
Method in brief: as §2

iAstro = astrocyte control; experiment: as above
Method in brief: as §2

HGGX2 = paediatric high-grade glioma line; experiment: as above
Method in brief: as §2

SUDIPGXXI = diffuse intrinsic pontine glioma line; experiment: as above
Method in brief: as §2

SUDIPGXVII = diffuse intrinsic pontine glioma line; experiment: as above
Method in brief: as §2

DIPGX9 = diffuse intrinsic pontine glioma line; experiment: as above
Method in brief: as §2

DIPGX7 = H3.3 K27M diffuse intrinsic pontine glioma line; experiment: as above
Method in brief: as §2

HGGX42 = H3.3 G34R paediatric high-grade glioma line; experiment: as above
Method in brief: as §2

HABS = astrocyte control; experiment: as above
Method in brief: as §2

Structure (SMILES) | maximal growth inhibition (DIPGX29 [1]) [%] | maximal growth inhibition (HGGX6 [2]) [%] | maximal growth inhibition (HGGX39 [3]) [%] | maximal growth inhibition (DIPGX37 [4]) [%] | area under dose-response curve (DIPGX29 [5]) | area under dose-response curve (HGGX6 [6]) | area under dose-response curve (HGGX39 [7]) | area under dose-response curve (DIPGX37 [8]) | EC50 (log10 M) (DIPGX29 [9]) | EC50 (log10 M) (HGGX6 [10]) | EC50 (log10 M) (HGGX39 [11]) | EC50 (log10 M) (DIPGX37 [12]) | area under dose-response curve (SUDIPGIV) | area under dose-response curve (SUDIPGXIX) | area under dose-response curve (SUDIPGXIII) | area under dose-response curve (SUDIPGVI) | area under dose-response curve (iAstro) | area under dose-response curve (HGGX2) | area under dose-response curve (SUDIPGXXI) | area under dose-response curve (SUDIPGXVII) | area under dose-response curve (DIPGX9) | area under dose-response curve (DIPGX7) | area under dose-response curve (HGGX42) | area under dose-response curve (HABS)
Cc1nc(-c2cccnc2)sc1C(=O)Nc1ccccc1-c1cn2c(CN3CCOCC3)csc2n1 [SRT2104] | 69 | 67.3 | 72.4 | 68.5 | 79.7 | 80.8 | 60.9 | 101 | -5.16 | -5.21 | -4.84 | -5.24 |  |  |  |  |  |  |  |  |  |  |  | 
Clc1ccc(CSC(Cn2ccnc2)c2ccc(Cl)cc2Cl)cc1 (stereo not drawn) [SULCONAZOLE] | 45.9 | 44.1 | 34.1 | 61.3 | 48.2 | 44.2 | 39.2 | 41.8 | -4.86 | -4.87 | -4.87 | -4.68 |  |  |  |  |  |  |  |  |  |  |  | 
Cc1nc(-c2cn3c(n2)-c2ccc(-c4cnn(C(C)(C)C(N)=O)c4)cc2OCC3)n(C(C)C)n1 [TASELISIB] | 63.3 | 38.8 | 47.5 | 56.7 | 122 | 86 | 74.8 | 138 | -5.8 | -6.13 | -5.49 | -6.36 |  |  |  |  |  |  |  |  |  |  |  | 
COc1cc([C@@H]2c3cc4c(cc3[C@@H](O[C@@H]3O[C@@H]5CO[C@@H](c6cccs6)O[C@H]5[C@H](O)[C@H]3O)[C@H]3COC(=O)[C@H]23)OCO4)cc(OC)c1O [TENIPOSIDE] | 33.5 | 31.2 | 37.6 | 50.7 | 63.2 | 42.9 | 75.2 | 81.2 | -6.01 | -5.36 | -5.94 | -5.43 |  |  |  |  |  |  |  |  |  |  |  | 
Clc1ccc(C(Cn2ccnc2)OCc2ccsc2Cl)c(Cl)c1 (stereo not drawn) [TIOCONAZOLE] | 48.3 | 46.3 | 65.3 | 78 | 36.4 | 38.1 | 51.3 | 56 | -4.77 | -4.82 | -4.79 | -4.73 |  |  |  |  |  |  |  |  |  |  |  | 
CN1CCN(CCCN2c3ccccc3Sc3ccc(C(F)(F)F)cc32)CC1 [TRIFLUOPERAZINE] | 82.9 | 80.2 | 90.3 | 87.2 | 74.2 | 62.3 | 87.4 | 76.8 | -4.89 | -4.78 | -4.86 | -4.88 |  |  |  |  |  |  |  |  |  |  |  | 
COc1cc2nc(N3CCCC3)nc(NCCCCCN3CCCC3)c2cc1OC [UNC0379] | 71.8 | 70.1 | 72.1 | 71.5 | 70.8 | 73.6 | 69.3 | 75.1 | -4.88 | -4.91 | -4.89 | -5.05 |  |  |  |  |  |  |  |  |  |  |  | 
COc1cc2c(NC3CCN(C(C)C)CC3)nc(N3CCC(F)(F)CC3)nc2cc1OCCCN1CCCC1 [UNC0642] | 74.9 | 72.8 | 74.9 | 70.6 | 71.3 | 75.5 | 62.5 | 96 | -4.96 | -5.05 | -4.84 | -5.19 |  |  |  |  |  |  |  |  |  |  |  | 
CCCc1cc(C)[nH]c(=O)c1CNC(=O)c1cc(-c2ccc(N3CCN(C(C)C)CC3)nc2)cc2c1cnn2C(C)C [UNC1999] | 73.8 | 72.5 | 76.4 | 73.8 | 75 | 83.6 | 70.2 | 85.9 | -5.02 | -5.11 | -4.92 | -5.18 |  |  |  |  |  |  |  |  |  |  |  | 
COc1cc2/c(=N/c3ccc(Br)cc3F)nc[nH]c2cc1OCC1CCN(C)CC1 [VANDETANIB] | 80.7 | 77.1 | 80.4 | 80.9 | 68.7 | 54.2 | 60.3 | 65.1 | -4.74 | -4.7 | -4.75 | -4.7 |  |  |  |  |  |  |  |  |  |  |  | 
O=C(CCCCCCC(=O)Nc1ccccc1)NO [VORINOSTAT] | 74.2 | 76.9 | 64.3 | 68 | 77.5 | 83.9 | 60.1 | 58.2 | -4.98 | -4.68 | -4.71 | -4.65 |  |  |  |  |  |  |  |  |  |  |  | 
O=c1ncccn1[C@@H]1O[C@H](CO)[C@@H](O)[C@H]1O [ZEBULARINE] |  |  |  |  | 5.5 | 2.58 | 2.92 | 19.9 |  |  |  |  | 12 | 5.55 | 32.2 | 13.2 | 6.4 | 20 | 15.3 | 7.86 | 11.6 | 17.7 | 15.7 | 4.92
